Measurements published in patent EP0359454B1, “CC-1065 analogs having two CPI subunits” (PHARMACIA & UPJOHN COMPANY, priority 1988, dated 1990).
Converted amounts (≈) assume the structure as drawn.

How the values were obtained:
[1] = in vitro and in vivo, depending upon the particular test system; cited from earlier work
L-1210 Leukemia = assay: L-1210 leukemia in vivo, IV drug vs IP tumor, dosed on day 1; parameters: species or system Male BDF1 mice; details: for OD (optimum dose): i.v. dose on day 1
Excerpt: (§1) Table 3 presents data comparing [S-(R*,R*)]-6,6′-[carbonylbis(imino-1H-indole-5,2-dicarbonyl)]bis[8-chloromethyl)-3,6,7,8-tetrahydro-1-methyl-benzo[1,2-b:4,3-b′]dipyrrol-4-ol (Compound 1) with (7bR)-N-[2-[(4,5,8,8a-tetrahydro-7-methyl-4-oxocyclopropa-[C]pyrrolo[3,2-e]indol-2(1H)0yl)carbonyl]-1H-indol-5-yl]-2-benzofurancarboxamide (U-73,975) in the other murine systems where the compounds have been run jointly.
(§2) The results set forth in Tables 1 and 4 were obtained using standard well known procedures (In Vivo Cancer, Models, NIH Publication No. 84-2635, 1984).
(§3) T/C refers to median life span of treated mice divided by median life span of control mice times 100.

L1210 leukemia cells = assay: In vitro L1210 cell growth inhibition; format: cell-based, murine; details: Mus musculus, concentration of drug which inhibits cell growth 50%, read-out: ID50 (the source's name)
Excerpt: as §1

L-1210 i.p. = L-1210 i.p. tumor, i.p. dose on days 1,5,9; format: in vivo, murine; details: for OD (optimum dose): i.p. dose on days 1,5,9; for cures: i.p. dose on days 1,5,9, at optimum dose, survival 30 days = cured
Excerpt: as §1, §2, §3

L-1210 sc = L-1210 sc tumor, i.p. dose on day 1; format: in vivo, murine; details: for OD (optimum dose) / cures: L-1210 sc; for OD (optimum dose): i.p. dose 1 on day 1; for cures: i.p. dose 1 on day 1, at optimum dose, survival 30 days = cured
Excerpt: as §1, §2, §3

B-16 i.p. = B-16 i.p. tumor, i.v. dose on day 1; format: in vivo, murine; details: for OD (optimum dose): i.v. dose on day 1; for T/C: i.v. dose on day 1, at optimum dose
Excerpt: The compounds of Formula I are particularly useful as antitumor agents. […] These murine test systems are predictive for clinically useful human antitumor agents (see, for examle, A. Geldin et al, European J. Cancer, Vol. 17, pp 129-142, 1981; J.M. Vendetti, Cancer Treatment Reports, Vol. 67, pp. 767-772, 1983; and J.M. Vendetti et al, Advances in Pharmacology and Chemotherapy, Vol. 20, pp. 1-20, 1984), and, therefore, the compounds of the subject invention (Formula I) will be useful in the control and treatment of susceptible neoplastic (cancer) diseases, including susceptible leukemics, in humans when given, for example, intravenously in doses of 0.001 µg/kg to about 10 mg/kg of body weight per day, the exact dose depending on the age, weight, and condition of the patient, and on the frequency of administration.
as §1, §3

Lewis Lung i.v. = Lewis Lung i.v. tumor, i.v. dose on days 1,5,9; format: in vivo, murine; details: for OD (optimum dose): i.v. dose on days 1,5,9; for T/C: i.v. dose on days 1,5,9, at optimum dose
Excerpt: as §1, §3

[2] = Delayed death in animals without tumor; format: in vivo, murine; details: NO TUMOR
Excerpt: as §1

Structure (SMILES)	factor by which less potent than CC-1065 [1]	cures (L-1210 Leukemia; IV drug vs IP tumor, dosed on day 1, animals surviving 30 days are considered cured, at the dose (µg/kg))	OD (optimum dose) (L-1210 Leukemia; L-1210 i.p.) [mg/kg]	cures (L-1210 Leukemia; L-1210 i.p., i.v. dose on day 1, at optimum dose, animals which survive 30 days are considered cured)	In vivo L1210 activity (in words) (L-1210 Leukemia; at 15 µg/kg)	IC50 (L1210 leukemia cells) [ng/mL]	OD (optimum dose) (L-1210 i.p.) [mg/kg]	cures (L-1210 i.p.)	OD (optimum dose) (L-1210 sc) [mg/kg]	cures (L-1210 sc)	Activity compared with U-73,975 (in words) (L-1210 sc; subcutaneous L1210 assay, over several dose ranges)	OD (optimum dose) (B-16 i.p.) [mg/kg]	T/C (B-16 i.p.)	OD (optimum dose) (Lewis Lung i.v.) [mg/kg]	T/C (Lewis Lung i.v.)	Delayed death [2]	Delayed death ([2]; listed as Cpd 1)	Best T/C (L-1210 Leukemia; IV drug vs IP tumor, dosed on day 1, T/C = median survival treated/control x 100, each value at the dose (1-600 µg/kg))	Best T/C (L-1210 Leukemia; L-1210 i.p., i.v. dose on day 1, at optimum dose)	Delayed death ([2]; listed as U-73-975)
COc1c(O)c2c(c3cc(C(=O)N4CCc5c4c(O)c(OC)c4[nH]c(C(=O)N6CC(COC(C)=O)c7c6cc(O)c6[nH]cc(C)c76)cc54)[nH]c13)CCN2C(N)=O (stereo not drawn) [AAP, 7-[[7-[[1-[(acetyloxy)methyl]-1,6-dihydro-5-hydroxy-8-methylbenzo[1,2-b:4,3-b′]dipyrrol-3(2H)-yl]carbonyl]-1,6-dihydro-4-hydroxy-5-methoxybenzo[1,2:4,3-b′]-dipyrrol-3(2H)-yl]carbonyl]-1,6-dihydro-4-hydroxy-5-methoxy-benzo[1,2-b:4,3-b′]dipyrrole-3(2H)-carboxamide]	10^3 to 10^4																			
Cc1c[nH]c2c(O)cc3c(c12)[C@H](CCl)CN3C(=O)c1cc2cc(NC(=O)Nc3ccc4[nH]c(C(=O)N5C[C@@H](CCl)c6c5cc(O)c5[nH]cc(C)c65)cc4c3)ccc2[nH]1 [Compound 1, [S-(R*,R*)]-6,6′-[carbonylbis(imino-1H-indole-5,2-dicarbonyl)]bis[8-chloromethyl)-3,6,7,8-tetrahydro-1-methylbenzo[1,2-b:4,3-b′]dipyrrol-4-ol]		4/6 cures	0.01 to 0.015	(4/6)	highly curative	0.001 (≈ 0.00123 nM)	0.004	(3/6)	0.01 to 0.025	(6/6)	superior activity	0.015	167	0.004	168	not to cause delayed death	No Delayed Death			
Cc1c[nH]c2c1[C@@]13C[C@@H]1CN(C(=O)c1cc4cc(NC(=O)c5cc6ccccc6o5)ccc4[nH]1)C3=CC2=O [U-73,975, (7bR)-N-[2-[(4,5,8,8a-tetrahydro-7-methyl-4-oxocyclopropa-[C]pyrrolo[3,2-e]indol-2(1H)0yl)carbonyl]-1H-indol-5-yl]-2-benzofurancarboxamide, reference compound]			0.1				0.02	(4/6)	0.1	(4/6)		0.1	160	0.025	147	not to cause delayed death		213	213	No Delayed Death
